Measurements reported in PubChem BioAssay (NCI).
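Five compound concentrations were applied to cells in 96-well plates for 48 hours; endpoints were derived by simple linear interpolation of the resulting dose-response curve. GI50 marks 50% less growth. TGI marks complete inhibition of growth.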

How the values were obtained:
Assay in all cases: NCI anticancer screen, dose series, 48 h
[1] = tested on: 786-0 renal
[2] = tested on: A498 renal
[3] = tested on: A549 NSCLC
[4] = tested on: ACHN renal
[5] = tested on: CAKI-1 renal
[6] = tested on: CCRF-CEM leukemia
[7] = tested on: COLO 205 colon
[8] = tested on: DMS 273 small cell lung
[9] = tested on: EKVX NSCLC
[10] = tested on: HCT-116 colon
[11] = tested on: HCT-15 colon
[12] = tested on: HL-60(TB) leukemia
[13] = tested on: HOP-62 NSCLC
[14] = tested on: HOP-92 NSCLC
[15] = tested on: HT29 colon
[16] = tested on: IGROV1 ovarian
[17] = tested on: K-562 leukemia
[18] = tested on: KM12 colon
[19] = tested on: KM20L2 colon
[20] = tested on: LOX IMVI melanoma
[21] = tested on: LXFL 529 NSCLC
[22] = tested on: M14 melanoma
[23] = tested on: MOLT-4 leukemia
[24] = tested on: NCI-H226 lung
[25] = tested on: NCI-H23 lung
[26] = tested on: NCI-H460 lung
[27] = tested on: NCI-H522 lung
[28] = tested on: OVCAR-3 ovarian
[29] = tested on: OVCAR-4 ovarian
[30] = tested on: OVCAR-5 ovarian
[31] = tested on: OVCAR-8 ovarian
[32] = tested on: RPMI-8226 leukemia
[33] = tested on: RXF 393 renal
[34] = tested on: RXF-631 renal
[35] = tested on: SF-268 CNS
[36] = tested on: SF-295 CNS
[37] = tested on: SF-539 CNS
[38] = tested on: SK-MEL-2 melanoma
[39] = tested on: SK-MEL-28 melanoma
[40] = tested on: SK-MEL-5 melanoma
[41] = tested on: SK-OV-3 ovarian
[42] = tested on: SN12C renal
[43] = tested on: SNB-19 CNS
[44] = tested on: SNB-75 CNS
[45] = tested on: SNB-78 CNS
[46] = tested on: SR leukemia
[47] = tested on: SW-620 colon
[48] = tested on: TK-10 renal
[49] = tested on: U251 CNS
[50] = tested on: UACC-257 melanoma
[51] = tested on: UACC-62 melanoma
[52] = tested on: UO-31 renal
[53] = tested on: XF 498 CNS
[54] = tested on: DLD-1 colon
[55] = tested on: DMS 114 small cell lung
[56] = tested on: HCC-2998 colon
[57] = tested on: M19-MEL melanoma
[58] = tested on: MALME-3M melanoma

SMILES: CCCCCCCCCCCc1noc2c1C(=O)C(O)CC2 (stereo not drawn)
- TGI [1]: 34.1 µM
- TGI [2]: 88.5 µM
- TGI [3]: 55 µM
- TGI [4]: > 100 µM
- TGI [5]: > 100 µM
- TGI [6]: 64.9 µM
- TGI [7]: 83 µM
- TGI [8]: 30.4 µM
- TGI [9]: > 100 µM
- TGI [10]: 41.6 µM
- TGI [11]: 43.7 µM
- TGI [12]: 65.5 µM
- TGI [13]: > 100 µM
- TGI [14]: 42.8 µM
- TGI [15]: 33.2 µM
- TGI [16]: > 100 µM
- TGI [17]: 42.8 µM
- TGI [18]: 57.1 µM
- TGI [19]: 31.8 µM
- TGI [20]: 34.4 µM
- TGI [21]: 33.1 µM
- TGI [22]: 94.6 µM
- TGI [23]: 65.7 µM
- TGI [24]: 35.9 µM
- TGI [25]: 31.9 µM
- TGI [26]: 37.7 µM
- TGI [27]: 40 µM
- TGI [28]: 34.3 µM
- TGI [29]: 33 µM
- TGI [30]: 42.6 µM
- TGI [31]: 35.8 µM
- TGI [32]: 67.7 µM
- TGI [33]: 27.5 µM
- TGI [34]: 36.7 µM
- TGI [35]: > 100 µM
- TGI [36]: 39.6 µM
- TGI [37]: 54.7 µM
- TGI [38]: 38.7 µM
- TGI [39]: 75.2 µM
- TGI [40]: 30.2 µM
- TGI [41]: 94.8 µM
- TGI [42]: 30.4 µM
- TGI [43]: 67.2 µM
- TGI [44]: 84.5 µM
- TGI [45]: 65.1 µM
- TGI [46]: 78 µM
- TGI [47]: 35.6 µM
- TGI [48]: > 100 µM
- TGI [49]: 28.3 µM
- TGI [50]: 42.3 µM
- TGI [51]: 33.8 µM
- TGI [52]: 71.2 µM
- TGI [53]: 27 µM

SMILES: CC(C)OP(=O)(OC(C)C)C([CH2][Sn]([CH3])([CH3])[Cl])P(=O)(OC(C)C)OC(C)C
- GI50 [1]: 16.7 µM
- TGI [1]: 33.1 µM
- GI50 [2]: 19.3 µM
- TGI [2]: > 100 µM
- GI50 [3]: 27.7 µM
- TGI [3]: > 100 µM
- GI50 [4]: 31 µM
- TGI [4]: > 100 µM
- GI50 [5]: 19.9 µM
- TGI [5]: 55.7 µM
- GI50 [6]: 20.7 µM
- TGI [6]: 64.9 µM
- GI50 [7]: 15.2 µM
- TGI [7]: 29.1 µM
- GI50 [54]: 36.8 µM
- TGI [54]: > 100 µM
- GI50 [55]: 21.9 µM
- TGI [55]: 67 µM
- GI50 [8]: 19.8 µM
- TGI [8]: 53.5 µM
- GI50 [9]: 30.3 µM
- TGI [9]: 98 µM
- GI50 [56]: 22.6 µM
- TGI [56]: 40.3 µM
- GI50 [10]: 19.7 µM
- TGI [10]: 42.8 µM
- GI50 [11]: 20.2 µM
- TGI [11]: 47.4 µM
- GI50 [12]: 4.56 µM
- TGI [12]: 18.2 µM
- GI50 [13]: 20.9 µM
- TGI [13]: 40.4 µM
- GI50 [14]: 13.7 µM
- TGI [14]: 34.4 µM
- GI50 [15]: 22.1 µM
- TGI [15]: 79.2 µM
- GI50 [16]: 24.5 µM
- TGI [16]: 97.4 µM
- GI50 [17]: 25.3 µM
- TGI [17]: > 100 µM
- GI50 [18]: 13.4 µM
- TGI [18]: 41.9 µM
- GI50 [19]: 17.5 µM
- TGI [19]: 34.6 µM
- GI50 [21]: 15 µM
- TGI [21]: 29.4 µM
- GI50 [22]: 16.4 µM
- TGI [22]: 31.4 µM
- GI50 [57]: 19.8 µM
- TGI [57]: 49.9 µM
- GI50 [58]: 16.3 µM
- TGI [58]: 33.2 µM
- GI50 [23]: 18.2 µM
- TGI [23]: 46.2 µM
- GI50 [24]: 21.2 µM
- TGI [24]: 41.3 µM
- GI50 [25]: 18.1 µM
- TGI [25]: 44.3 µM
- GI50 [26]: 16 µM
- TGI [26]: 36.3 µM
- GI50 [27]: 6.6 µM
- TGI [27]: 23.5 µM
- GI50 [28]: 20.2 µM
- TGI [28]: 72.5 µM
- GI50 [29]: 26.8 µM
- TGI [29]: > 100 µM
- GI50 [30]: 31.5 µM
- TGI [30]: > 100 µM
- GI50 [31]: 30.2 µM
- TGI [31]: > 100 µM
- GI50 [32]: 15.2 µM
- TGI [32]: 35.1 µM
- GI50 [34]: 38.3 µM
- TGI [34]: > 100 µM
- GI50 [36]: 19.7 µM
- TGI [36]: 48.7 µM
- GI50 [37]: 24.2 µM
- TGI [37]: 51.5 µM
- GI50 [38]: 15.6 µM
- TGI [38]: 29.9 µM
- GI50 [39]: 21.3 µM
- TGI [39]: 74.9 µM
- GI50 [40]: 16.5 µM
- TGI [40]: 31 µM
- GI50 [41]: 25.5 µM
- TGI [41]: 64 µM
- GI50 [42]: 27.9 µM
- TGI [42]: > 100 µM
- GI50 [43]: 30.2 µM
- TGI [43]: 86.9 µM
- GI50 [44]: 19.3 µM
- TGI [44]: 43.3 µM
- GI50 [47]: 20.2 µM
- TGI [47]: 42.5 µM
- GI50 [48]: 23.2 µM
- TGI [48]: 69.9 µM
- GI50 [49]: 20.4 µM
- TGI [49]: 46.3 µM
- GI50 [50]: 21.3 µM
- TGI [50]: 65.3 µM
- GI50 [51]: 14.1 µM
- TGI [51]: 32.9 µM
- GI50 [52]: 19.9 µM
- TGI [52]: 43.2 µM
- GI50 [53]: 14.5 µM
- TGI [53]: 35.1 µM

SMILES: CC(=O)CC(=O)Nc1c(C)[c]([Hg][O]C(C)=O)c(C)[c]([Hg][O]C(C)=O)[c]1[Hg][O]C(C)=O
- GI50 [1]: 10.9 µM
- TGI [1]: 24.4 µM
- GI50 [2]: 15.3 µM
- TGI [2]: 28.8 µM
- GI50 [3]: 17.1 µM
- TGI [3]: 34.2 µM
- GI50 [4]: 14.2 µM
- TGI [4]: 27.3 µM
- GI50 [5]: 18.6 µM
- TGI [5]: 32.6 µM
- GI50 [6]: 4.01 µM
- TGI [6]: 49.5 µM
- GI50 [7]: 33.3 µM
- TGI [7]: > 100 µM
- GI50 [54]: 13.6 µM
- TGI [54]: 51.1 µM
- GI50 [8]: 18.4 µM
- TGI [8]: 50.4 µM
- GI50 [9]: 20.6 µM
- TGI [9]: 41.3 µM
- GI50 [56]: 17.6 µM
- TGI [56]: 32.6 µM
- GI50 [10]: 18.2 µM
- TGI [10]: 41.1 µM
- GI50 [11]: 15.1 µM
- TGI [11]: 35.7 µM
- GI50 [13]: 20.8 µM
- TGI [13]: 36.4 µM
- GI50 [15]: 12.2 µM
- TGI [15]: 30.5 µM
- GI50 [16]: 15.4 µM
- TGI [16]: 40.7 µM
- GI50 [17]: 4 µM
- TGI [17]: > 100 µM
- GI50 [18]: 16.9 µM
- TGI [18]: 34.8 µM
- GI50 [19]: 18.8 µM
- TGI [19]: 48.2 µM
- GI50 [21]: 6.54 µM
- TGI [21]: 20.7 µM
- GI50 [22]: 12.7 µM
- TGI [22]: 29.8 µM
- GI50 [57]: 15.4 µM
- TGI [57]: 36.5 µM
- GI50 [58]: 6.56 µM
- TGI [58]: 20.4 µM
- GI50 [23]: 10.3 µM
- TGI [23]: > 100 µM
- GI50 [24]: 29.4 µM
- TGI [24]: 56.5 µM
- GI50 [25]: 10.6 µM
- TGI [25]: 24.5 µM
- GI50 [27]: 10.4 µM
- TGI [27]: 35.8 µM
- GI50 [28]: 12.8 µM
- TGI [28]: 25.5 µM
- GI50 [29]: 15.6 µM
- TGI [29]: 30.6 µM
- GI50 [30]: 28.9 µM
- TGI [30]: 71.8 µM
- GI50 [31]: 10.9 µM
- TGI [31]: 24.4 µM
- GI50 [33]: 3.44 µM
- TGI [33]: 16.2 µM
- GI50 [34]: 2.39 µM
- TGI [34]: 7.75 µM
- GI50 [35]: 15.4 µM
- TGI [35]: 35.4 µM
- GI50 [36]: 18.5 µM
- TGI [36]: 36.2 µM
- GI50 [37]: 18.1 µM
- TGI [37]: 37.1 µM
- GI50 [38]: 16.1 µM
- TGI [38]: 31.7 µM
- GI50 [39]: 12.6 µM
- TGI [39]: 26.3 µM
- GI50 [40]: 2.99 µM
- TGI [40]: 11.3 µM
- GI50 [41]: 20.9 µM
- TGI [41]: 35.3 µM
- GI50 [42]: 17.5 µM
- TGI [42]: 33.3 µM
- GI50 [43]: 2.47 µM
- TGI [43]: 6.61 µM
- GI50 [44]: 12.9 µM
- TGI [44]: 25.9 µM
- GI50 [45]: 22.7 µM
- TGI [45]: 58.4 µM
- GI50 [46]: 5.31 µM
- TGI [46]: > 100 µM
- GI50 [47]: 10 µM
- TGI [47]: 27.4 µM
- GI50 [48]: 13 µM
- TGI [48]: 25.7 µM
- GI50 [49]: 11.7 µM
- TGI [49]: 24.6 µM
- GI50 [50]: 14.4 µM
- TGI [50]: 28.5 µM
- GI50 [51]: 11.8 µM
- TGI [51]: 24.1 µM
- GI50 [52]: 22.4 µM
- TGI [52]: 40 µM
- GI50 [53]: 4.38 µM
- TGI [53]: 15.6 µM
